These results are taken from PubChem BioAssay (NCI).

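Exposure lasted 48 hours, with cells grown in 96-well plates and compounds tested at five concentrations. GI50 is the concentration that inhibits growth by half. TGI: total growth inhibition.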 Some results are limits rather than exact numbers.

Among the test systems are MALME-3M melanoma; MOLT-4 leukemia; HCT-15 colon; OVCAR-5 ovarian; 786-0 renal; TK-10 renal; U251 CNS; BT-549 breast; SF-268 CNS; HOP-92 NSCLC.
Assay in all cases: NCI anticancer screen, dose series, 48 h

Turning to `CN1C(=O)C(=CN(C)c2ccccc2)C(=O)N(C)C1=O`, the TGI in the assay with MALME-3M melanoma, in the assay on MOLT-4 leukemia, in the assay on HCT-15 colon, in the assay with OVCAR-5 ovarian, in the assay with 786-0 renal and with TK-10 renal was greater than 100 µM in each case. Further, in the assay on U251 CNS, the TGI is greater than 100 µM.
`CC(=O)c1cccc(NC(=O)c2ccc(NC3=C(Cl)C(=O)N(Cc4ccccc4)C3=O)cc2)c1`: the GI50 was 8.8 µM in the assay on BT-549 breast; 2210 nM in the assay on MOLT-4 leukemia; 16.8 µM in the assay with HCT-15 colon; greater than 100 µM with OVCAR-5 ovarian; 22.2 µM in the assay on SF-268 CNS; 16.5 µM with 786-0 renal. Moreover, the GI50 in the assay on HOP-92 NSCLC is 6.45 µM; in the assay on U251 CNS, 17900 nM. Also, the TGI was 27.9 µM with BT-549 breast; greater than 100 µM with MOLT-4 leukemia; 44.5 µM with HCT-15 colon; greater than 100 µM in the assay with OVCAR-5 ovarian; 98.9 µM in the assay with SF-268 CNS; 36.4 µM in the assay with 786-0 renal. Moreover, the figures for the TGI in the assay with HOP-92 NSCLC and in the assay on U251 CNS were 22.8 µM and 44.5 µM, respectively.
In the case of `COC(=O)C(=O)C(CC(=O)Nc1cccc(C(F)(F)F)c1)C(=O)OC` (configuration not stated), the TGI in the assay on MALME-3M melanoma, with MOLT-4 leukemia, with HCT-15 colon, in the assay with OVCAR-5 ovarian, with SF-268 CNS and in the assay with 786-0 renal was greater than 100 µM each time. Besides, the TGI in the assay with TK-10 renal, with HOP-92 NSCLC and in the assay on U251 CNS was greater than 100 µM each time.
With `Cc1cn2c(/C=N/N=C(N)N)c(-c3ccsc3)nc2s1`, the GI50 with BT-549 breast was 15 µM; in the assay with MOLT-4 leukemia, greater than 100000 nM; in the assay on HCT-15 colon, 7.81 µM; in the assay with OVCAR-5 ovarian, 15.1 µM; with SF-268 CNS, 14.6 µM; in the assay on 786-0 renal, 5.89 µM. Moreover, the GI50 in the assay with TK-10 renal was 13400 nM; in the assay on U251 CNS it was 2080 nM. Moreover, the TGI was 29.5 µM in the assay with BT-549 breast; greater than 100 µM in the assay on MOLT-4 leukemia; 21.6 µM in the assay with HCT-15 colon; 28.7 µM in the assay with OVCAR-5 ovarian; 44.3 µM in the assay with SF-268 CNS; 19.7 µM with 786-0 renal. The TGI in the assay on TK-10 renal is 27.5 µM; in the assay on U251 CNS, 5.95 µM.
Take `O=C(CC1C(=O)Nc2ccccc2S1(=O)=O)Nc1cccc(Cl)c1` (configuration not stated): the TGI with MALME-3M melanoma was 63.7 µM; with MOLT-4 leukemia, 32.3 µM; in the assay with HCT-15 colon, 31.5 µM; with OVCAR-5 ovarian it was 59.1 µM; with SF-268 CNS, 30.1 µM; with 786-0 renal, 29.1 µM. Further, the values for the TGI in the assay on TK-10 renal, in the assay with HOP-92 NSCLC and with U251 CNS were 46.6 µM, 32.2 µM and 26.4 µM, respectively.
`CC12CC(Sc3ccccc3N1)c1ccccc1O2` (configuration not stated): the TGI with MALME-3M melanoma was found to be 30.1 µM; in the assay with MOLT-4 leukemia, 44.6 µM; in the assay with HCT-15 colon, 29.2 µM; in the assay on OVCAR-5 ovarian it was 33.3 µM; in the assay with SF-268 CNS, 30.4 µM; with 786-0 renal, 31.6 µM. For the same molecule, the TGI in the assay with TK-10 renal was 51.4 µM; in the assay on HOP-92 NSCLC it was 35.2 µM; with U251 CNS it was 26 µM.
For the molecule `Cc1ccc(S(=O)(=O)SCc2ccccc2)cc1`, the TGI with MALME-3M melanoma was 81.5 µM; in the assay with MOLT-4 leukemia, 6.22 µM; in the assay with HCT-15 colon, 28.6 µM; with OVCAR-5 ovarian, greater than 100 µM; in the assay with SF-268 CNS, greater than 85.7 µM; in the assay with 786-0 renal, 31.4 µM. Moreover, the figures for the TGI with TK-10 renal, in the assay on HOP-92 NSCLC and with U251 CNS were greater than 100 µM, 60.9 µM and 58.8 µM, respectively.
As to `O=C(NC(=O)c1cc2cc(Br)cc(Br)c2oc1=O)Oc1ccccc1`, the TGI in the assay on MALME-3M melanoma, in the assay with MOLT-4 leukemia, in the assay on HCT-15 colon, in the assay on OVCAR-5 ovarian, with SF-268 CNS and in the assay on 786-0 renal was greater than 100 µM each time. In addition, the TGI in the assay on TK-10 renal, in the assay with HOP-92 NSCLC and in the assay on U251 CNS was greater than 100 µM in each case.
Turning to `Cc1cc(NS(=O)(=O)c2ccc(Nc3c4ccccc4nc4c(C(=O)Nc5ccc(S(=O)(=O)N=C(N)N)cc5)ccc(Cl)c34)cc2)no1`, the TGI with MALME-3M melanoma is greater than 100 µM; in the assay on MOLT-4 leukemia it was 67.3 µM; in the assay with OVCAR-5 ovarian it was greater than 100 µM; in the assay on SF-268 CNS, 63.2 µM; in the assay with 786-0 renal, greater than 100 µM; in the assay with TK-10 renal, greater than 100 µM. The TGI in the assay on U251 CNS was greater than 100 µM.
Consider `CCCCN1CCN(c2ccc3nc(-c4ccc5nc(-c6ccc(OCC)c(OCC)c6)[nH]c5c4)[nH]c3c2)CC1`, for which the GI50 with MOLT-4 leukemia was 1220 nM; in the assay on HCT-15 colon it was 1.56 µM; in the assay on OVCAR-5 ovarian it was 1.9 µM; in the assay on SF-268 CNS, 2.66 µM; in the assay on 786-0 renal it was 1.41 µM; with TK-10 renal, 1660 nM. The GI50 was 1.23 µM in the assay with HOP-92 NSCLC and 1280 nM in the assay on U251 CNS. In addition, the TGI in the assay on MOLT-4 leukemia worked out at 3.86 µM; with HCT-15 colon, 3.32 µM; in the assay on OVCAR-5 ovarian it was 3.4 µM; with SF-268 CNS, 22 µM; in the assay on 786-0 renal, 2.84 µM; in the assay on TK-10 renal it was 5.17 µM. The values for the TGI in the assay on HOP-92 NSCLC and in the assay with U251 CNS were 3.17 µM and 2.69 µM, respectively.
Take `COc1ccc(C#CC2=C(c3cc(OC)c(OC)c(OC)c3)C(=O)OC2)cc1`: the GI50 is 2.13 µM in the assay on BT-549 breast; 1100 nM with MOLT-4 leukemia; 1.99 µM in the assay with HCT-15 colon; greater than 50 µM in the assay on OVCAR-5 ovarian; 2.23 µM with SF-268 CNS; 4.94 µM with 786-0 renal. Moreover, the GI50 with TK-10 renal was 1770 nM; with U251 CNS, 1640 nM. In addition, the TGI in the assay on BT-549 breast is 15.7 µM; in the assay with MOLT-4 leukemia, greater than 50 µM; in the assay on HCT-15 colon it was greater than 50 µM; in the assay on OVCAR-5 ovarian it was greater than 50 µM; in the assay on SF-268 CNS, greater than 50 µM; with 786-0 renal, greater than 50 µM. Also, the TGI with TK-10 renal was greater than 50 µM; in the assay on U251 CNS it was 6.74 µM.
As to `O=C1c2c(c3c4ccccc4[nH]c3c3[nH]c4ccccc4c23)C(=O)N1Cc1ccccc1`, the TGI in the assay on MALME-3M melanoma came out at 11.9 µM; with MOLT-4 leukemia it was 7.51 µM; in the assay on HCT-15 colon, 5.91 µM; in the assay with OVCAR-5 ovarian it was 7.61 µM; with SF-268 CNS it was 14 µM; in the assay on 786-0 renal it was 11.3 µM. For the same molecule, the TGI with TK-10 renal was found to be 11.6 µM; in the assay with HOP-92 NSCLC it was 5.65 µM; in the assay on U251 CNS it was 6.34 µM.
